# Reference: PMC11803819, “Chemical composition, antioxidant activities, and enzyme inhibitory effects of Lespedeza bicolour Turcz. essential oil” (Journal of Enzyme Inhibition and Medicinal Chemistry, 2025)
# Assays:
# [1] = tested on: acetylcholinesterase (AChE); details: previous studies; cited from earlier work
# [2] = DPPH radical scavenging assay; details: positive control
# Method: The experimental procedure was adapted from previous research with minor modifications. The concentrations of Trolox (positive control) and the mother solution of the essential oil EO were 1.0 mg/mL and 20 mg/mL, respectively, in an ethanolic system. 50 μL of the positive control or EO solution was pipetted into a 96‐well microplate and 200 μL of a 2,2-diphenyl-1-picrylhydrazyl (DPPH) solution. The microplate was incubated in the dark at 25 °C for 30 min, and then the absorbance was measured at 517 nm using an Epoch microplate absorbance spectrophotometer (Epoch, Biotech company, Minneapolis, MN, USA). The DPPH radical scavenging capacity (RSC%) was calculated using the Equation (2). […] (2) RSC%=(1−ASample−ASample Blank/AControl)×100% where, ASample is the absorbance of the tested sample at different concentrations, AControl is the absorbance of the control (ethanolic DPPH solution), and ASample Blank is the absorbance of the ethanol sample without DPPH.
# [3] = ABTS radical scavenging assay; details: positive control
# Method: The experimental procedure is derived from the previous methods with some modifications[35]^,[36]. A mixture of 7.0 mM 2,2-azinobis(3-ethylbenzothiazoline-6-sulfonate) (ABTS) solution and 2.6 mM potassium persulfate was prepared to generate the ABTS^•+ free radical. The mixture was subsequently stored in the dark at room temperature for 12 h, facilitating the entire generation of the ABTS^•+ free radical. Additionally, ethanolic EO solutions were prepared at 50, 25, 10, 5, 2.5, and 1 mg/mL concentrations. A microplate reader (Epoch, Biotech company, Minneapolis, MN, USA) was utilised to ascertain the absorbance of the solution, delineated as the absorbance at 734 nm six minutes post-initiation of the reaction. For comparison, ethanol was used as the blank and gradient-diluted solvent. Meanwhile, 0.5 mg/mL 6‐hydroxy‐2,5,7,8‐tetramethylchroman‐2‐carboxylic acid (Trolox) was utilised as the positive control. The ABTS radical scavenging capacity (RSC%) was calculated using the Equation (1). (1) RSC%=A0−A/A0×100% where A0 and A are the absorbance of 200 μL diluted ABTS^•+ solution mixed with 50 μL ethanol and 50 μL sample solution, respectively, at 734 nm. IC50 was then calculated. All tests were performed in triplicates.
# [4] = target: β-lactamase; details: cited from earlier work
# Sequence of acetylcholinesterase (AChE) (P22303 32-614, species assumed): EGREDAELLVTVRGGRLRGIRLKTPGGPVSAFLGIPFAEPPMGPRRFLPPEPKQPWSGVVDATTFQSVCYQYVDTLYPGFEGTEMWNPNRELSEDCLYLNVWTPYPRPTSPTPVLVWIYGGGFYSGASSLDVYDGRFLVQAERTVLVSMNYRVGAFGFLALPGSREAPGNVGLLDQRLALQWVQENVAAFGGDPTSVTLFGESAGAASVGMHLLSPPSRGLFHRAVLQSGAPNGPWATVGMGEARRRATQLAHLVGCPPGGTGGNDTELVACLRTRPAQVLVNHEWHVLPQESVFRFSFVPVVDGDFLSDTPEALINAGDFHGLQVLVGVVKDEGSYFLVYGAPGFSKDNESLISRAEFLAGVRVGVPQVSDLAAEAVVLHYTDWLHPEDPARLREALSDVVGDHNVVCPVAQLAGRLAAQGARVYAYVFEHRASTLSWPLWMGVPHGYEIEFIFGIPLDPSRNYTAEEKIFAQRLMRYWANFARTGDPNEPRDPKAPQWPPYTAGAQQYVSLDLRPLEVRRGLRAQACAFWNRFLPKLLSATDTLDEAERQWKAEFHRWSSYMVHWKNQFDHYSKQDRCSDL
compound,measurement,setting,value
C=C[C@](C)(O)CC[C@@H]1[C@@]2(C)CCCC(C)(C)[C@@H]2CC[C@@]1(C)O [Sclareol],Inhibition against AChE,[1],significant inhibition
"Cc1c(C)c2c(c(C)c1O)CCC(C)(C(=O)O)O2 (stereo not shown) [Trolox, 6‐hydroxy‐2,5,7,8‐tetramethylchroman‐2‐carboxylic acid]",IC50 of DPPH scavenging capacity,[2],9.94 ± 0.20 µg/mL
same,IC50 of ABTS radical scavenging capacity,[3],6.15 ± 0.15 µg/mL
COC(=O)C=Cc1ccccc1 [methyl cinnamate],IC50,[4],11.6 µg/mL
